# Test: GSNO decomposition at different pH values, monitored spectrophotometrically at 540 nm (FIG. 3)
# Type: physicochemical
# From the text: The GSNO is a brown colored compound having a characteristic absorption spectrum. One of its two characteristic peaks is in the UV range, while the maximum of the other is around 540 nm. During decomposition the absorption spectrum of GSNO goes through a change. The change in the height of the peak at 540 nm is linearly proportional with the concentration of GSNO. Wavelengths at far IR range can be used as background absorption, since no change occurs in them during the decomposition process of GSNO. These features allow monitoring the concentration of GSNO spectrophotometrically. […] On the X-axis the time (given in days) and on the Y-axis absorbency values are given. Symbols Indicate the Following pH Values: • *: pH=0.3; • ♦: pH=4.26; • □: pH=7.4; • ▪: pH=8.6; • ◯: pH=12.6. The decomposition of GSNO was monitored spectrophotometrically, since the absorption spectrum of GSNO undergoes changes and the size change of the peak at 540 nm is linearly proportional with the concentration of GSNO. Wavelengths at far IR range were used as background absorption, since no change occurs in them during the decomposition of GSNO.
smiles,measurement,setting,value
"N[C@@H](CCC(=O)N[C@@H](CSN=O)C(=O)NCC(=O)O)C(=O)O [GSNO, S-nitrosoglutathione]",GSNO metabolism (decomposition),"more alkaline conditions, curve of pH 12",gets accelerated
same,stability,"pH about 8.6, compared with conventionally applied pH 4.26",very good stability
same,pH range of plateau-like maximum of stability,pH range,7.5 to 10
same,metabolic rate of GSNO,under alkaline conditions,significantly be decreased
